Results on 13 molecules are retold here after ChEMBL document CHEMBL5291721, “A preclinical secondary pharmacology resource illuminates target-adverse drug reaction associations of marketed drugs” (Nat Commun, 2023).

The target in assay [1] is Glucagon receptor (Homo sapiens, UniProt P47871).
In assay [2] the target is Mu-type opioid receptor (Homo sapiens, UniProt P35372). Put plainly: biochemical. In kind it is functional.
In assay [3] the target is T1, Corticotropin-releasing factor receptor 1 (Homo sapiens, UniProt P34998).
T1 sequence (P34998 whole entry): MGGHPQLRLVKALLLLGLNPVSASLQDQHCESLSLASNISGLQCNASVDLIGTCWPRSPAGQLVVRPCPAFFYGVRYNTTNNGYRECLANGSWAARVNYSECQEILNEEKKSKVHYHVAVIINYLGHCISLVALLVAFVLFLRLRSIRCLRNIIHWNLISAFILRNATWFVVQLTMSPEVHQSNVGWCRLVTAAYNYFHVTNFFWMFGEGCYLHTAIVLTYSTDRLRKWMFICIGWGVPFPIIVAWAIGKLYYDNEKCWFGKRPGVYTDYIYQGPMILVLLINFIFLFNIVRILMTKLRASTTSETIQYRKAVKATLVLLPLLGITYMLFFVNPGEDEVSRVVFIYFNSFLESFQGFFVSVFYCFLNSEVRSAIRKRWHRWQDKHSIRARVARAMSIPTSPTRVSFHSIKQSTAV

The target of assay [4] is T2, Neuropeptide Y receptor type 2 (Homo sapiens, UniProt P49146).
T2 sequence (P49146 whole entry): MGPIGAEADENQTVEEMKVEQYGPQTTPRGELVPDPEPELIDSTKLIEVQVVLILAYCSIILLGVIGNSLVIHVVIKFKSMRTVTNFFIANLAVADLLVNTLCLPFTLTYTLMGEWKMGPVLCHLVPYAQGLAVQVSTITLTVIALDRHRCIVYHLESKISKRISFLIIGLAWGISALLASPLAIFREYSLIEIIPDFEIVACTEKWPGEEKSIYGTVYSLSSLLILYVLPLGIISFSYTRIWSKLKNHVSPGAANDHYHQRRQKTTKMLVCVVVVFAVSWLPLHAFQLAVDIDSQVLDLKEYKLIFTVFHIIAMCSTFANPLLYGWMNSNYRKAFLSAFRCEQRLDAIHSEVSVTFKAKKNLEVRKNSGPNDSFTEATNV

For assay [5], the target named is Beta-3 adrenergic receptor (Homo sapiens, UniProt P13945).
The target in assay [6] is Beta-2 adrenergic receptor (Homo sapiens, UniProt P07550).
The target in assay [7] is T3, Gastric inhibitory polypeptide receptor (Homo sapiens, UniProt P48546).
T3 sequence (P48546 whole entry): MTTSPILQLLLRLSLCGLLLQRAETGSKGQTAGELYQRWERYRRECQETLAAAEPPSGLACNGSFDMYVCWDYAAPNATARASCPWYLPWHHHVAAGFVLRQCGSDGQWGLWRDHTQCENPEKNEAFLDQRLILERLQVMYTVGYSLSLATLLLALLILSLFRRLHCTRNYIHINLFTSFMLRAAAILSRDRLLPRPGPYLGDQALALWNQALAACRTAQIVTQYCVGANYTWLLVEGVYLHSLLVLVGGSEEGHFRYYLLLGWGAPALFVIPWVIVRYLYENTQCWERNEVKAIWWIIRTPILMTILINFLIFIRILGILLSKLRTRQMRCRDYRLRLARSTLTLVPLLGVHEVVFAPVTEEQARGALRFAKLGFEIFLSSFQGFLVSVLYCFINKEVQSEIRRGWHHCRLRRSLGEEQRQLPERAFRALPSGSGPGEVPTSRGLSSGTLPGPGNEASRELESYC

Assay [8] concerns the target Neurotensin receptor type 1 (Homo sapiens, UniProt P30989).
Assay [9] deals with T4, Alpha-1A adrenergic receptor (Homo sapiens, UniProt P35348).
T4 sequence (P35348 whole entry): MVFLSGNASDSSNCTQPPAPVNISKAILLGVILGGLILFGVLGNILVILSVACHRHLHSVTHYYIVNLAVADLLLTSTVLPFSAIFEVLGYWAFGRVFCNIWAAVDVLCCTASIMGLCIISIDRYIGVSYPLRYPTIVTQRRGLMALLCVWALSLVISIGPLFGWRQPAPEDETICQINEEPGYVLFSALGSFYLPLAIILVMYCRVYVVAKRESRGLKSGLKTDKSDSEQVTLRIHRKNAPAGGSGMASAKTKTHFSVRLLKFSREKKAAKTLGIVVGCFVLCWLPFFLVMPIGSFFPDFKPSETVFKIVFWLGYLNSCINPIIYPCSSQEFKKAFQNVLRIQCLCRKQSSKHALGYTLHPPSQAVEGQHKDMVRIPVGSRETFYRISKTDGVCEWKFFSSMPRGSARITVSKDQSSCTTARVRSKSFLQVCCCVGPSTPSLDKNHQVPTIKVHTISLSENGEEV

For assay [10], the target named is Gamma-aminobutyric acid receptor subunit alpha-1/alpha-2/beta-2/gamma-2 (Homo sapiens, UniProt P14867+P18507+P47869+P47870). In kind it is functional, cell-based.
For assay [11], the target named is Muscarinic acetylcholine receptor M3 (Homo sapiens, UniProt P20309).
Assay [12] addresses 5-hydroxytryptamine receptor 2A (Homo sapiens, UniProt P28223). Type of assay: functional, cell-based.
Assay [13] addresses Sodium-dependent serotonin transporter (Homo sapiens, UniProt P31645).
Note: assay procedure not described here.

Neurotensin receptor type 1, sequence (P30989 whole entry): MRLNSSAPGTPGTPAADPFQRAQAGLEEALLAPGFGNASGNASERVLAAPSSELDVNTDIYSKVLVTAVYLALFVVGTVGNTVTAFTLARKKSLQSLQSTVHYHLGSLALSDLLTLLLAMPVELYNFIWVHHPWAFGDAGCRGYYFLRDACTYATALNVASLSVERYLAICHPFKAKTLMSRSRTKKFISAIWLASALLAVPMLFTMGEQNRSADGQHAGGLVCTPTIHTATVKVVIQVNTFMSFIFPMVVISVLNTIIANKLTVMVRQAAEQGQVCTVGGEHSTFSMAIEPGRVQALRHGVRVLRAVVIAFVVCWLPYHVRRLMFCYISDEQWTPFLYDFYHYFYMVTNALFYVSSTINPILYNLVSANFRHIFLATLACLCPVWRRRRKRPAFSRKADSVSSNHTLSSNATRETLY
Gamma-aminobutyric acid receptor subunit alpha-1/alpha-2/beta-2/gamma-2, sequence (P14867 whole entry): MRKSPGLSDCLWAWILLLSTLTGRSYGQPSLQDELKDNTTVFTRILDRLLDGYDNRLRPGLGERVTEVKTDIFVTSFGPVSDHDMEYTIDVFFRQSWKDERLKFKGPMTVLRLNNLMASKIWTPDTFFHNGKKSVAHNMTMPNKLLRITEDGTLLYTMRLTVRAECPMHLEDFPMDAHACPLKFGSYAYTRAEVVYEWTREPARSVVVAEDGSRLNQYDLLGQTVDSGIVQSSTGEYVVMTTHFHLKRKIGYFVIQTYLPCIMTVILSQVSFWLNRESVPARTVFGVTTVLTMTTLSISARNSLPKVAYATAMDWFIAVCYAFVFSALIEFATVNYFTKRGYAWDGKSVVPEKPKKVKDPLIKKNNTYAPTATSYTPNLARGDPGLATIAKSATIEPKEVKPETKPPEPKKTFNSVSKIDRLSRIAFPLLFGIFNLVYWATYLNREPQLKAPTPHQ
Gamma-aminobutyric acid receptor subunit alpha-1/alpha-2/beta-2/gamma-2, sequence (P47870 whole entry): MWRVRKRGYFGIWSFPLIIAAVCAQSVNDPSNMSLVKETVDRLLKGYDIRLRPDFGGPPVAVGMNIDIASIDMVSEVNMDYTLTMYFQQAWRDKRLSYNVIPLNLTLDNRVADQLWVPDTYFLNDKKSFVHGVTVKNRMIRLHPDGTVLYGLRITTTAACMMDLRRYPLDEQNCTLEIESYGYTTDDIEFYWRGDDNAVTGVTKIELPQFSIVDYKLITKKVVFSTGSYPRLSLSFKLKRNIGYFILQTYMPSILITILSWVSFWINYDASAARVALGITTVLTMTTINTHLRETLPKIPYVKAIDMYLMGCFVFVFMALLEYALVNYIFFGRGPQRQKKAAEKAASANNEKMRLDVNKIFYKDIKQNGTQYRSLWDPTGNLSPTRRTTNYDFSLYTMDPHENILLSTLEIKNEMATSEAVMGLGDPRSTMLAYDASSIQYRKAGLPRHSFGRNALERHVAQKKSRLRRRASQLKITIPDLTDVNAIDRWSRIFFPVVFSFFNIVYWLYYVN
Gamma-aminobutyric acid receptor subunit alpha-1/alpha-2/beta-2/gamma-2, sequence (P18507 whole entry): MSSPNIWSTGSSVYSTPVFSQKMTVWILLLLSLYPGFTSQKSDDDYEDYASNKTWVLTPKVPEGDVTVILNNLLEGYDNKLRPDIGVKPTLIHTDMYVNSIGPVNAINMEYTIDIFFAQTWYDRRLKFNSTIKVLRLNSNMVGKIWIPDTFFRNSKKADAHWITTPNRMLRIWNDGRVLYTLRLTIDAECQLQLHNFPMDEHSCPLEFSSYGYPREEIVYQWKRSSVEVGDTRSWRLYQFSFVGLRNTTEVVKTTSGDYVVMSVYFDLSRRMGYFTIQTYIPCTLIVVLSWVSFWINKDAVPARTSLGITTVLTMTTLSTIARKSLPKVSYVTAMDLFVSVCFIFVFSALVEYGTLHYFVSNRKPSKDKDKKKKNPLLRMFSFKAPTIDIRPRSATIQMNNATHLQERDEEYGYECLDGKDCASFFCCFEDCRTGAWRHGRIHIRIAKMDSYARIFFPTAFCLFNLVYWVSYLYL
Gamma-aminobutyric acid receptor subunit alpha-1/alpha-2/beta-2/gamma-2, sequence (P47869 whole entry): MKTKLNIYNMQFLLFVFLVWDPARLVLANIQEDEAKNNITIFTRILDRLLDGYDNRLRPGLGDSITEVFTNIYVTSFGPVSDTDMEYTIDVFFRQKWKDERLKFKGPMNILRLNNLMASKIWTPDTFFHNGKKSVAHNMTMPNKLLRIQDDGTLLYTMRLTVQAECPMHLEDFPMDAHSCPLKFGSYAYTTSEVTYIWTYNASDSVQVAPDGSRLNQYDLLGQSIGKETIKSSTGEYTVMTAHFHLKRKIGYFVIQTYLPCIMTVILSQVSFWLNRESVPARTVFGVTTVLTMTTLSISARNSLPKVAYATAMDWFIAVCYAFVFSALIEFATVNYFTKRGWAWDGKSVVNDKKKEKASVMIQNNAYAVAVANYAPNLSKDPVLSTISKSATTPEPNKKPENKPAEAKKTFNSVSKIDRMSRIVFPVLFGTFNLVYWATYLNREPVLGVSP
Beta-3 adrenergic receptor, sequence (P13945 whole entry): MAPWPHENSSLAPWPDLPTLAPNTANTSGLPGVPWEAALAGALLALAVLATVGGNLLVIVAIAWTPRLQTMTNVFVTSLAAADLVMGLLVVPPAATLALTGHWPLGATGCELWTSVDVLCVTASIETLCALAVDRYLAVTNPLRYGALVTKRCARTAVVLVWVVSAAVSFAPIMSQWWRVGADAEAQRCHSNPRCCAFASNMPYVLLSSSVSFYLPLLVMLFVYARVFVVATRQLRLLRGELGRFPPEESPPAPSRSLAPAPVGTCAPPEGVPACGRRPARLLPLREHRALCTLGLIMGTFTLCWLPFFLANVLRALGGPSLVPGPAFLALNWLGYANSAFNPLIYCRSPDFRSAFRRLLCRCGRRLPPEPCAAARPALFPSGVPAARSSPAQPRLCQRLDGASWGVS
Sodium-dependent serotonin transporter, sequence (P31645 whole entry): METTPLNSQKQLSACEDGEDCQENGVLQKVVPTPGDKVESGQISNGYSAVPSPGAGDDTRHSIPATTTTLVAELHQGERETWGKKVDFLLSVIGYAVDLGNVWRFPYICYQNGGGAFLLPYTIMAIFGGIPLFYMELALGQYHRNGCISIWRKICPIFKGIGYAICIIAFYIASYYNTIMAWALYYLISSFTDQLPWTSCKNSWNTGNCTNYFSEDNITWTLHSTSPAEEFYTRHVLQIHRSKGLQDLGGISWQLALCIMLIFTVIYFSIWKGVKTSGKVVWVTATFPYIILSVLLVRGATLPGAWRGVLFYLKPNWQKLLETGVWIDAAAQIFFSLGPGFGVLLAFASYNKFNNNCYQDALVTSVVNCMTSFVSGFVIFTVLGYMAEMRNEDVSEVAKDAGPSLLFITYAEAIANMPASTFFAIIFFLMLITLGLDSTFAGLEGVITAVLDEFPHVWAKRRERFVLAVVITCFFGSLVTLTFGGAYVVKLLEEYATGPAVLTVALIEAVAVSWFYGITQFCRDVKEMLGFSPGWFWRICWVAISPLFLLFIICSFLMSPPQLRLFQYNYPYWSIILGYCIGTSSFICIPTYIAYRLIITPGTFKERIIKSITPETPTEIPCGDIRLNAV
Glucagon receptor, sequence (P47871 whole entry): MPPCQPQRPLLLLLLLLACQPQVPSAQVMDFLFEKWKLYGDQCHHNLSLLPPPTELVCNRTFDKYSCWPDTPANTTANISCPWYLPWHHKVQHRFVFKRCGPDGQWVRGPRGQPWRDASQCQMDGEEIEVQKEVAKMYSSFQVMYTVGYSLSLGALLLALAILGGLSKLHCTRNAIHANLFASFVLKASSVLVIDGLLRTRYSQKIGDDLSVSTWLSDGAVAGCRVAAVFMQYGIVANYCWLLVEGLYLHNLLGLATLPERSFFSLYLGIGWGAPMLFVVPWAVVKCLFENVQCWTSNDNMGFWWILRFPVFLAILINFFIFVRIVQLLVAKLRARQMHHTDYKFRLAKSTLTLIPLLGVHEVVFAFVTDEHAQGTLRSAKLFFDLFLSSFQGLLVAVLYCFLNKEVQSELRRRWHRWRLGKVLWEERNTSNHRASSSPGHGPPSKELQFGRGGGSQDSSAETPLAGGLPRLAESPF
Beta-2 adrenergic receptor, sequence (P07550 whole entry): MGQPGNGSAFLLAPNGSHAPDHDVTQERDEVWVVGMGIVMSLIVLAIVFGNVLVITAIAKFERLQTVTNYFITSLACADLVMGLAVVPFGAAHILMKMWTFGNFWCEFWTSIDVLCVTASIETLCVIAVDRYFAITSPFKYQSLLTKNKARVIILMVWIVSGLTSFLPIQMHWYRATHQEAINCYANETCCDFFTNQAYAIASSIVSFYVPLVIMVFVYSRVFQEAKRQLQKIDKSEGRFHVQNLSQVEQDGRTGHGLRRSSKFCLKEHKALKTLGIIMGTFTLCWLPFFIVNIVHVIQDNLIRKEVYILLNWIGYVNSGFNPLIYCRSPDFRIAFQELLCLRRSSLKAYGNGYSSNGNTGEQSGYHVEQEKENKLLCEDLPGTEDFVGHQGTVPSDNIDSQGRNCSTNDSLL
5-hydroxytryptamine receptor 2A, sequence (P28223 whole entry): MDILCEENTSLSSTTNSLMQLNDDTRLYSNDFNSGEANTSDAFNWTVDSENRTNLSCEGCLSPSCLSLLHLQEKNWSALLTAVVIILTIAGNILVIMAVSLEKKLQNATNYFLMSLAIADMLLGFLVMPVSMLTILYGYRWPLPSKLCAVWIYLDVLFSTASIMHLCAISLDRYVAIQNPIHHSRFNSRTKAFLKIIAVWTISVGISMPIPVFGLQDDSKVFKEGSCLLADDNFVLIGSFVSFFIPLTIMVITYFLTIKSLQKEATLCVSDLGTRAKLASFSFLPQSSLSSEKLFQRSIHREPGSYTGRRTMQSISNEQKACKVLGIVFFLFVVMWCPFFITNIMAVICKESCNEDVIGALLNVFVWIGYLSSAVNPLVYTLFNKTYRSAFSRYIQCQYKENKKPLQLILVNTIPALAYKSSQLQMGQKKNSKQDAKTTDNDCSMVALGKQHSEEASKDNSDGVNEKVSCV

By AC50 is commonly meant the concentration giving half of the maximal activity seen. A lower AC50 goes with activity at low concentration. With `CC1(C)S[C@@H]2[C@H](NC(=O)[C@H](N)c3ccc(O)cc3)C(=O)N2[C@H]1C(=O)O` [AMOXICILLIN], the concentration at half-maximal activity (AC50) in [1], in assay [2], in assay [3], in assay [4], in assay [5] and in assay [6] was over 30 µM each time. The AC50 in assay [7] was over 30 µM; in assay [8], over 30 µM; in assay [9] it was over 10 µM.

Turning to `Clc1cccc(Cl)c1N=C1NCCN1` [CLONIDINE], the half-maximal activity concentration (AC50) in assay [1], in [3], in assay [4], in assay [5], in [7] and in [8] was over 30 µM in each case.

For the molecule `COC(=O)[C@H](c1ccccc1Cl)N1CCc2sccc2C1` [CLOPIDOGREL], the AC50 in assay [1], in assay [2], in [3], in assay [4], in [10] and in assay [5] was over 30 µM each time. In addition, the AC50 in assay [6] was over 30 µM; in assay [7] it was over 30 µM; in assay [8], over 30 µM; in [9], over 10 µM.

Turning to `CN1C[C@H](C(=O)N[C@]2(C)O[C@@]3(O)[C@@H]4CCCN4C(=O)[C@H](Cc4ccccc4)N3C2=O)C[C@@H]2c3cccc4[nH]cc(c34)C[C@H]21` [DIHYDROERGOTAMINE], the concentration at half-maximal activity (AC50) in assay [1] is over 30 µM; in [3], over 30 µM; in assay [4], over 30 µM; in assay [5], 0.26 µM; in [7], over 30 µM; in [8], over 30 µM. Moreover, the half-maximal activity concentration (AC50) in assay [9] turned out to be 0.0376 µM.

As for `Cc1cnc(NC(=O)C2=C(O)c3ccccc3S(=O)(=O)N2C)s1` [MELOXICAM], the half-maximal activity concentration (AC50) in assay [1] was over 30 µM; in [3], over 30 µM; in assay [4], over 30 µM; in assay [5], over 30 µM; in [6] it was over 10 µM; in assay [7] it was over 30 µM. The AC50 in assay [8] was over 30 µM; in [9], over 10 µM.

`COc1ccnc(C[S+]([O-])c2nc3ccc(OC(F)F)cc3[nH]2)c1OC` (stereo unspecified) [PANTOPRAZOLE]: the AC50 is over 30 µM in assay [1]; over 30 µM in assay [3]; over 30 µM in [4]; over 30 µM in assay [5]; over 10 µM in [6]; over 30 µM in assay [7]. Moreover, the AC50 in [8] is over 30 µM; in assay [9], 10.6 µM.

With `CNC[C@H](O)c1cccc(O)c1` [PHENYLEPHRINE], the half-maximal activity concentration (AC50) in assay [1], in assay [2], in [3], in assay [11], in assay [4] and in assay [12] was over 30 µM throughout. In addition, the results for the concentration at half-maximal activity (AC50) in assay [13], in assay [7] and in [8] were over 10 µM, over 30 µM and over 30 µM, respectively.

`O=C1NC(=O)C(c2ccccc2)(c2ccccc2)N1` [PHENYTOIN]: the AC50 in assay [1] is over 30 µM; in [3] it was over 30 µM; in assay [4], over 30 µM; in assay [5], over 30 µM; in assay [6], over 10 µM; in assay [7], over 30 µM. The AC50 in [8] is over 30 µM; in assay [9], over 10 µM.

As to `CC(C)C[C@H](CN)CC(=O)O` [PREGABALIN], the AC50 in assay [1], in [2], in [3], in assay [11], in [4] and in [12] was over 30 µM each time. Moreover, the concentration at half-maximal activity (AC50) in assay [10], in assay [5], in assay [6], in assay [13], in assay [7] and in assay [8] was over 30 µM throughout.

Turning to `CCCN(CCC)CCc1cccc2c1CC(=O)N2` [ROPINIROLE], the AC50 in [1] was over 30 µM; in assay [2] it was over 30 µM; in [3], over 30 µM; in assay [11] it was over 30 µM; in [4], over 30 µM; in assay [12], 12 µM. The AC50 in assay [10] was over 30 µM; in assay [5], over 30 µM; in assay [6] it was over 10 µM; in assay [13], over 30 µM; in [7] it was over 30 µM; in assay [8], over 30 µM. In assay [9], this molecule displayed an AC50 of over 10 µM.

As for `CC(=O)S[C@@H]1CC2=CC(=O)CC[C@]2(C)[C@H]2CC[C@@]3(C)[C@@H](CC[C@@]34CCC(=O)O4)[C@H]12` [SPIRONOLACTONE], the AC50 was over 30 µM in [1]; over 30 µM in assay [3]; over 30 µM in [4]; over 30 µM in [10]; over 30 µM in assay [5]; over 10 µM in assay [6]. The AC50 in [7] was over 30 µM; in assay [8], over 30 µM; in [9], 10.4 µM.

For `CCCCNc1ccc(C(=O)OCCN(C)C)cc1` [TETRACAINE], the AC50 in assay [1] was over 30 µM; in assay [3], over 30 µM; in [4] it was over 30 µM; in [5] it was over 30 µM; in assay [6] it was over 10 µM; in [7], over 30 µM. The AC50 is 9.9 µM in assay [8] and over 10 µM in assay [9].

For `CC1(C)O[C@@H]2[C@@H](CO[C@@]3(COS(N)(=O)=O)OC(C)(C)O[C@@H]23)O1` [TOPIRAMATE], the AC50 in assay [1] is over 30 µM; in [3], over 30 µM; in assay [4] it was over 30 µM; in assay [5], over 30 µM; in [6], over 10 µM; in assay [13] it was over 10 µM. Besides, the values for the concentration at half-maximal activity (AC50) in [7], in assay [8] and in assay [9] were over 30 µM, over 30 µM and over 10 µM, respectively.
